In US20230197192A1, “SELECTING NEOANTIGENS FOR PERSONALIZED CANCER VACCINE” (AMAZON TECHNOLOGIES, INC., priority 2020, published 2023):
Where a SMILES comes first, the peptide text is derived from it. Where no end group is shown, it is not given here.

Assay: Visible dissolution of peptides in DMSO / 0.9% NaCl for pool formulation
Format: physicochemical
Conditions: not given
Method: Groups of peptides are selected and pooled. Up to four (4) pools with not more than (NMT) five (5) peptides in each pool were prepared. Each peptide was dissolved in 5.538% (v/v) DMSO followed by 0.9% NaCl solution, at a concentration of each peptide at 0.4158 mg/mL. Peptides which were visibly dissolved were accepted for that group's pool. Upon successful pooling of all peptides within a group, the pool was filtered through a 0.2 μm Nylon filter. Peptides were shipped in sterile tubes and labeled with Pool name, lot #, components, manufacturing data, quantity/concentration and storage conditions.

| Compound | Solubility | Stability |
| --- | --- | --- |
| SSCMGGMNQRPILTIITLED [DDDDD.9] | Cloudy |  |
| RSLTLEPDPIVVPGNVTLSVVG [GGGGG.33] |  | Clear |
| CSCC[C@H](NC(=O)[C@H](CC(C)C)NC(=O)[C@@H](NC(=O)[C@H](CCSC)NC(=O)[C@H](CC(C)C)NC(=O)[C@@H]1CCCN1C(=O)[C@H](C)NC(=O)[C@H](Cc1ccc(O)cc1)NC(=O)[C@@H]1CCCN1C(=O)[C@H](CC(=O)O)NC(=O)CNC(=O)[C@@H](NC(=O)CNC(=O)CNC(=O)[C@H](CC(C)C)NC(=O)CNC(=O)[C@H](CO)NC(=O)[C@H](Cc1ccc(O)cc1)NC(=O)[C@@H]1CCCN1)C(C)C)C(C)C)C(=O)N[C@@H](CS)C(=O)N[C@@H](CCCNC(=N)N)C(=O)N[C@H](C(=O)N[C@@H](CS)C(=O)N[C@@H](CC(C)C)C(=O)N[C@@H](CCC(=O)O)C(=O)N[C@@H](CC(=O)O)C(=O)O)C(C)C [GGGGG.17] (H-PYSGLGGVGDPYAPLMVLMCRVCLED-OH; N-terminus and C-terminus assumed) |  | Semi |

Same assay, conditions: Peptide Synthesis Engineering Run Batch for Sample GGGGG; visual appearance of the peptide solution (Clear / Semi Cloudy / Cloudy)

| Compound | Visual solubility (appearance of the peptide solution) |
| --- | --- |
| APGSSRLA [GGGGG.43] | Clear |
| MSYELKCAQEL [GGGGG.49] | Clear |
| LDRQHVQHQLLVILKELRK [GGGGG.34] | Clear |
| VSPDIFMQSHL [GGGGG.40] | Clear |
| VLGTSAPGSSRLAAVDLGG [GGGGG.2] | Clear |
| SAPGSSRLAAV [GGGGG.36] | Clear |
| PSAPQQEGVASKEKEEV [GGGGG.4] | Clear |
| LAPGQPFL [GGGGG.50] | Clear |
| TSAPGSSRLAA [GGGGG.47] | Clear |
| RPGEDPSLHGIVKEQL [GGGGG.10] | Clear |
| HLINYQDDAELATHALPELTKLLNDEDPV [GGGGG.14] | Clear |
| CC[C@H](C)[C@H](NC(=O)[C@H](CO)NC(=O)[C@H](CC(=O)O)NC(=O)[C@H](CCC(=O)O)NC(=O)[C@H](C)NC(=O)CN)C(=O)N[C@@H](CC(=O)O)C(=O)N[C@@H](CO)C(=O)N1CCC[C@H]1C(=O)N[C@@H](CO)C(=O)N[C@@H](C)C(=O)N[C@@H](CS)C(=O)N1CCC[C@H]1C(=O)N[C@@H](CC(C)C)C(=O)N[C@@H](CO)C(=O)N[C@H](C(=O)NCC(=O)N[C@@H](CS)C(=O)N1CCC[C@H]1C(=O)N[C@@H](C)C(=O)N[C@@H](CC(C)C)C(=O)O)[C@@H](C)O [GGGGG.21] (H-GAEDSIDSPSACPLSTGCPAL-OH; N-terminus and C-terminus assumed) | Clear |
| CC(C)C[C@H](NC(=O)[C@@H](NC(=O)[C@H](Cc1c[nH]c2ccccc12)NC(=O)[C@H](C)NC(=O)[C@H](C)NC(=O)[C@@H](NC(=O)[C@H](Cc1ccccc1)NC(=O)[C@H](CCCCN)NC(=O)[C@H](C)N)C(C)C)[C@@H](C)O)C(=O)N[C@@H](CCCCN)C(=O)N[C@@H](C)C(=O)N[C@@H](C)C(=O)N[C@@H](C)C(=O)O [GGGGG.51] | Clear |
| MSYELKCAQELSQKQDG [GGGGG.31] | Clear |
| RVGDLSPKQKEALAKPEA [GGGGG.27] | Clear |
| SLCQAPPL [GGGGG.48] | Clear |
| NSLQNQALQTLQERLHEADAT [GGGGG.20] | Clear |
| TVDMLQCLRFPGLALPHTRAPSPLG [GGGGG.35] | Clear |
| IQSIYGGLPKVPAKPKEPTIPH [GGGGG.23] | Clear |

Same assay, conditions: Peptide synthesis engineering run batch for sample DDDDD_2020; appearance of the solution

| Compound | Solubility |
| --- | --- |
| AVVSYVVADMKEMLPRS [DDDDD.25] | Clear |
| DSSIPSAATL [DDDDD.42] | Clear |
| APPTRLAPPQRPPPPS [DDDDD.22] | Clear |
| LLGTVDKHSVKVTNCFSVPHN [DDDDD.16] | Clear |
| GQLFPYRARIEIKNKF [DDDDD.27] | Clear |
| LNGSEPTGAYSIKGFFADYEIPN [DDDDD.26] | Clear |
| MSKPKWPLEDEISKPEVP [DDDDD.3] | Clear |
| TWHRGDAL [DDDDD.34] | Clear |
| KVTNCFSV [DDDDD.33] | Clear |
| NTSALPLVSL [DDDDD.41] | Clear |
| EAQSRSSPTL [DDDDD.40] | Clear |
| RRWRKLYRANSHLFQAKRFN [DDDDD.24] | Clear |
| ASSQAGTVTL [DDDDD.38] | Clear |
| RDILELGGPEEDAASGTISKKD [DDDDD.30] | Clear |
| SAGENPLEEEE [DDDDD.43] | Clear |
| WLPELPSLPSNGDPPAICE [DDDDD.15] | Clear |
| RRACGARTL [DDDDD.37] | Clear |
| LQMLCPQEAPQILSRLEAVR [DDDDD.7] | Clear |
| DPRLVIFSGCATRLFEA [DDDDD.11] | Cloudy |
| ARPEAQSRSSPTLES [DDDDD.12] | Clear |
| KDKIWLRRTKPSKHQYQICLAIDDSSSM [DDDDD.17] | Clear |
| GQRRDRLLTVQALSGL [DDDDD.14] | Clear |

Same assay, conditions: Peptide synthesis engineering run batch for sample FFFFF; appearance of the solution

| Compound | Solubility |
| --- | --- |
| CC(C)C[C@H](NC(=O)[C@H](CS)NC(=O)[C@H](CS)NC(=O)[C@H](CCC(=O)O)NC(=O)[C@H](Cc1c[nH]c2ccccc12)NC(=O)[C@H](Cc1ccccc1)NC(=O)[C@H](CCC(N)=O)NC(=O)[C@H](C)NC(=O)[C@@H](N)CC(C)C)C(=O)O [FFFFF.38] (H-LAQFWECCL-OH; N-terminus and C-terminus assumed) | Cloudy |
| KLESTVGSPKKPLSDLGKLS [FFFFF.22] | Clear |
| SLLLQEEEL [FFFFF.39] | Cloudy |
| CC(C)C[C@H](NC(=O)[C@@H](NC(=O)[C@H](Cc1c[nH]c2ccccc12)NC(=O)[C@H](C)NC(=O)[C@H](C)NC(=O)[C@@H](NC(=O)[C@H](Cc1ccccc1)NC(=O)[C@H](CCCCN)NC(=O)[C@H](C)N)C(C)C)[C@@H](C)O)C(=O)N[C@@H](CCCCN)C(=O)N[C@@H](C)C(=O)N[C@@H](C)C(=O)N[C@@H](C)C(=O)O [FFFFF.51] | Clear |
| CC(C)C[C@H](NC(=O)[C@H](CS)NC(=O)[C@H](CS)NC(=O)[C@H](CCC(=O)O)NC(=O)[C@H](Cc1c[nH]c2ccccc12)NC(=O)[C@H](Cc1ccccc1)NC(=O)[C@H](CCC(N)=O)NC(=O)[C@H](C)N)C(=O)O [FFFFF.41] (H-AQFWECCL-OH; N-terminus and C-terminus assumed) | Cloudy |
| YKTDLHSL [FFFFF.37] | Clear |
| NSASMKQAL [FFFFF.47] | Clear |
| EDTGQDMLALFLRTNRQAAK [FFFFF.8] | Clear |
| RSTTKSPGPSRHSKSPASTSSVN [FFFFF.21] | Clear |
| MILASPRYVDQVTEFLQQKLK [FFFFF.18] | Clear |
| PLNPPASTAFSQEPHSGSPA [FFFFF.24] | Clear |
| YGRTVVPFLVPGTSQLGQ [FFFFF.9] | Clear |
| YIHTSVSQDFSQSVPGTTSSPL [FFFFF.10] | Clear |
